Data set [1] can be described thus: Pharmacokinetics: plasma concentration after oral administration to rats. Particulars: 10 mg/kg; for AUC(0-inf) / Cmax: Crl:CD(SD) (Sprague-Dawley), male rat (Crl: CD (SD)), plasma. It counts as in vivo, rat. The procedure: The required amounts of compounds were weighed, and drug suspensions were prepared in 0.5% hydroxypropyl methylcellulose. The number of rats in each group was two, and each drug suspension was administered orally to each male rat (Crl: CD (SD)) using an oral sonde (the dose of the compound was 10 mg/kg). At each blood collection point (0.5, 1, 2, 4, 8, and 24 hours after administration), blood was collected from the jugular vein using a syringe and a needle (the anticoagulant was heparin sodium). The collected blood was centrifuged (13000 rpm, 2 min, 4° C.) to prepare plasma, followed by deproteinization. Thereafter, the concentration of the compound in the plasma was measured by LC/MS/MS (ICMS-8040 (Shimadzu Corporation) or API 4000 (AB Sciex), IC: 30-A and 20-A series (Shimadzu Corporation) or Waters Acquity (Waters Corporation)).

The subject of a further data set is ND3 neuronal cell line. Kind of data set: Measurement of nerve growth stimulation effect (neurite bearing assay, neurite length assay, number of cells). It counts as cell-based. Particulars: for Number of cells: ND3 cells, 6 h. The method in brief: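 ND3 cells were exposed 6 h to compounds in DMEM with 0.1% BSA (0.1% DMSO final), in duplicate. Neurite-bearing fraction (neurite longer than cell-body diameter) and neurite length per cell were scored by imaging and expressed relative to compound 24 maximum. Cell number was relative to DMSO wells; data with relative count <0.5 were excluded.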

The subject of data set [2] is streptozotocin (STZ)-induced DM model SD rats. Kind of data set: Evaluation of drug efficacy in diabetes mellitus (DM) rat model (bladder function, residual urine volume). In kind it is in vivo. Particulars: oral twice a day for 4 weeks. As to the method: To examine the effect of the compound in a diabetes mellitus model, bladder function was analyzed by […] based on the method of Saitoh et al. (European Journal of Pharmacology 501 (2004) 143-149).
A streptozotocin (STZ) solution obtained by dissolving STZ in a citrate buffer solution (0.1 M citric acid, pH of 4.2) to a concentration of 32.5 mg/mL was prepared, and administered intraperitoneally (65 mg/kg) to SD rats to induce DM models. The same procedure was performed on sham rats except that a citrate buffer solution was used in place of the STZ solution.
On the day after the model production and 4 weeks later, a blood sample was taken from the tail vein with the rats awake to measure the blood glucose level. […] Individuals with a blood glucose level of 300 mg/dL or more on the day after the production of the model and 4 weeks later were determined to be established DM models and used in subsequent operations. […]
A pressure transducer (DX-360, Nihon Kohden Kogyo Co., Ltd.) and an infusion pump (TE-331S, Terumo Corporation) were connected via a three-way valve to the other end of a catheter inserted into the bladder. […] The volume of urination was automatically measured using an electronic balance (GX-200, A&D Company Limited) set directly under the holding cage, and recorded continuously on a computer using a PowerLab (sampling rate: 20/sec). […]

Where [3] appears, read: 6 hours, relative cell number, DMSO well = 1.
[4] abbreviates: 1 μM compound, relative cell number, DMSO well = 1.
Setting [5] is: 3 μM compound, relative cell number, DMSO well = 1.
Setting [6] is: 5 μM compound, relative cell number, DMSO well = 1.
Setting [7] is: 10 μM compound, relative cell number, DMSO well = 1.
The mark [8] stands for this setting: 30 μM compound, relative cell number, DMSO well = 1.
[9] abbreviates: 100 μM compound, relative cell number, DMSO well = 1.

Eight molecules from patent publication US20230295068A1, “NOVEL CYCLOALKENONE COMPOUND OR SALT THEREOF” (TAIHO PHARMACEUTICAL CO., LTD., priority 2020, published 2023) can be followed below.

Molecules are shown by their SMILES.

On to `CC1=C(CCCCCCCCCCCCCCCO)C(C)(C)CCC1=O` [Compound 4, 3-(15-hydroxypentadecyl)-2,4,4-trimethylcyclohex-2-en-1-one, reference compound], for which, in data set [1], the AUC(0-inf) came out at 0.003 µM·h and the Cmax was found to be 2 nM. Also, in the data set with ND3 neuronal cell line (setting [3]), the viability at 1 µM was found to be 103%, the viability at 3 µM came out at 92%, the viability at 5 µM is 92% and the viability at 10 µM came out at 101%. In addition, in the data set with ND3 neuronal cell line (setting [3]), the viability at 30 µM turned out to be 19%.
In the case of `COCCCCCCCCCCCCCCCC1=C(C)C(=O)CCC1(C)C` [Compound 24, 3-(15-methoxypentadecyl)-2,4,4-trimethylcyclohex-2-en-1-one], the “drug efficacy (residual urine volume, FIG. 1) as compared to the compound 4” value in data set [2] is reported as “remarkable drug efficacy”. In data set [1], this molecule displayed an AUC(0-inf) of 5.9 µM·h and a maximum concentration (Cmax) of 2200 nM. Further, in data set [1] (rat), the “improvement in area under the curve (AUC) as compared to the compound 4” value was ≥ 1900 times and the “improvement in maximum blood concentration Cmax as compared to the compound 4” value was ≥ 1100 times. Further, in the data set on ND3 neuronal cell line (setting [3]), the viability at 1 µM is 106%, the viability at 3 µM was found to be 101%, the viability at 5 µM stood at 94% and the viability at 10 µM turned out to be 92%. In the data set with ND3 neuronal cell line (setting [3]), the viability at 30 µM was 96%. For the same molecule, in the data set on ND3 neuronal cell line (100 μM, 6 hours, relative cell number, DMSO well = 1), the viability at 100 µM turned out to be 92%. In addition, the “number of relative cells” value with ND3 neuronal cell line (1 to 100 μM) is recorded as ≥ 0.5.
As for `COCCCCCCCCCCCCC1=C(C)C(=O)CC1(C)C` [Compound 70, 3-(12-methoxydodecyl)-2,4,4-trimethylcyclopent-2-en-1-one], the Number of cells with ND3 neuronal cell line (setting [4]) is 0.84; in the data set on ND3 neuronal cell line (setting [5]), 0.91; with ND3 neuronal cell line (setting [6]) it was 0.91; with ND3 neuronal cell line (setting [7]) it was 0.86; in the data set with ND3 neuronal cell line (setting [8]), 0.79; in the data set on ND3 neuronal cell line (setting [9]), 0.73.
Consider `CCCOCCCCCCCCCCCCC1=C(C)C(=O)CC1(C)C` [Compound 71, 2,4,4-trimethyl-3-(12-propoxydodecyl)cyclopent-2-en-1-one], for which the Number of cells in the data set on ND3 neuronal cell line (setting [4]) was determined as 0.87; in the data set with ND3 neuronal cell line (setting [5]) it was 0.94; in the data set with ND3 neuronal cell line (setting [6]), 0.87; in the data set on ND3 neuronal cell line (setting [7]), 0.79; with ND3 neuronal cell line (setting [8]), 0.39; in the data set on ND3 neuronal cell line (setting [9]), 0.07.
In the case of `COCCCCCCCCCCCCCCC1=C(C)C(=O)CC1(C)C` [Compound 72, 3-(14-methoxytetradecyl)-2,4,4-trimethylcyclopent-2-en-1-one], the Number of cells with ND3 neuronal cell line (setting [4]) is reported as 0.84; with ND3 neuronal cell line (setting [5]) it was 0.85; with ND3 neuronal cell line (setting [6]), 0.78; with ND3 neuronal cell line (setting [7]) it was 0.80; in the data set with ND3 neuronal cell line (setting [8]) it was 0.41; in the data set with ND3 neuronal cell line (setting [9]), 0.38.
As to `CCOCCCCCCCCCCCCCCC1=C(C)C(=O)CC1(C)C` [Compound 73, 2,4,4-trimethyl-3-(14-ethoxytetradecyl)cyclopent-2-en-1-one], the Number of cells with ND3 neuronal cell line (setting [4]) was found to be 0.91; with ND3 neuronal cell line (setting [5]), 0.86; in the data set on ND3 neuronal cell line (setting [6]) it was 0.84; with ND3 neuronal cell line (setting [7]), 0.82; with ND3 neuronal cell line (setting [8]), 0.61; with ND3 neuronal cell line (setting [9]) it was 0.09.
On to `CC1=C(CCCCCCCCCCCCCCC(N)=O)C(C)(C)CC1=O` [Compound 74, 15-(2,5,5-trimethyl-3-oxocyclopent-1-en-1-yl)pentadecanamide], for which the Number of cells in the data set on ND3 neuronal cell line (setting [4]) was determined as 0.74; with ND3 neuronal cell line (setting [5]), 0.75; with ND3 neuronal cell line (setting [6]), 0.71; with ND3 neuronal cell line (setting [7]) it was 0.73; in the data set with ND3 neuronal cell line (setting [8]), 0.60; with ND3 neuronal cell line (setting [9]), 0.26.
For the molecule `CC1=C(CCCCCCCCCCCCCCC#N)C(C)(C)CC1=O` [Compound 75, 15-(2,5,5-trimethyl-3-oxocyclopent-1-en-1-yl)pentadecanitrile], the Number of cells with ND3 neuronal cell line (setting [4]) is 0.89; with ND3 neuronal cell line (setting [5]), 0.93; with ND3 neuronal cell line (setting [6]), 0.94; with ND3 neuronal cell line (setting [7]), 0.80; in the data set on ND3 neuronal cell line (setting [8]), 0.75; in the data set with ND3 neuronal cell line (setting [9]), 0.80.

The AUC(0-inf) is the area under the concentration-time curve extrapolated to infinity. The low end stands for low exposure, the high end for high exposure. As usually defined, the Cmax is the highest concentration seen after dosing. One may read the viability as a read-out of living cells in per cent, often relative to untreated cells.
